Measurements published in the supplement of paper PMC10733146.

Tests used:
Experiment in all cases: viability relative to DMSO control (fraction); higher = less drug effect (more viable cells)
Conditions in all cases: 48 h
BEZ235 = compound: Cn1c(=O)n(-c2ccc(C(C)(C)C#N)cc2)c2c3cc(-c4cnc5ccccc5c4)ccc3ncc21 [BEZ235]
How it was run: (§1)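 Using 384-well plates with compounds already plated at five concentrations, one well per concentration, 4 × 10^4 primary mononuclear tumour cells were added per well. Cells were Ficoll-isolated from blood or bone marrow or came from processed lymph node, fresh or cryopreserved. They were kept for 48 h at 37 °C and 5% CO2 in RPMI-1640 supplemented with penicillin/streptomycin, L-glutamine and human serum, and viability was read as CellTiter-Glo luminescence relative to the median of 16 inner DMSO wells.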

Carfilzomib = compound: CC(C)C[C@H](NC(=O)[C@H](CCc1ccccc1)NC(=O)CN1CCOCC1)C(=O)N[C@@H](Cc1ccccc1)C(=O)N[C@@H](CC(C)C)C(=O)[C@@]1(C)CO1 [Carfilzomib]
How it was run: as §1

8-Azaguanin = compound: Nc1nc2n[nH]nc2c(=O)[nH]1 [8-Azaguanin]
How it was run: as §1

Tozasertib = compound: Cc1cc(Nc2cc(N3CCN(C)CC3)nc(Sc3ccc(NC(=O)C4CC4)cc3)n2)n[nH]1 [Tozasertib]
How it was run: as §1

ONO-4059 = compound: CC#CC(=O)N1CC[C@@H](n2c(=O)n(-c3ccc(Oc4ccccc4)cc3)c3c(N)ncnc32)C1 [ONO-4059]
How it was run: as §1

Nilotinib = compound: Cc1cn(-c2cc(NC(=O)c3ccc(C)c(Nc4nccc(-c5cccnc5)n4)c3)cc(C(F)(F)F)c2)cn1 [Nilotinib]
How it was run: as §1

Quizartinib = compound: CC(C)(C)c1cc(NC(=O)Nc2ccc(-c3cn4c(n3)sc3cc(OCCN5CCOCC5)ccc34)cc2)no1 [Quizartinib]
How it was run: as §1

EPZ-5676 = compound: CC(C)N(C[C@H]1O[C@@H](n2cnc3c(N)ncnc32)[C@H](O)[C@@H]1O)[C@H]1C[C@@H](CCc2nc3cc(C(C)(C)C)ccc3[nH]2)C1 [EPZ-5676]
How it was run: as §1

AG-221 (Enasidinib) = compound: CC(C)(O)CNc1nc(Nc2ccnc(C(F)(F)F)c2)nc(-c2cccc(C(F)(F)F)n2)n1 [AG-221 (Enasidinib)]
How it was run: as §1

BI6727 = compound: CC[C@@H]1C(=O)N(C)c2cnc(Nc3ccc(C(=O)N[C@H]4CC[C@H](N5CCN(CC6CC6)CC5)CC4)cc3OC)nc2N1C(C)C [BI6727]
How it was run: as §1

Bortezomib = compound: CC(C)C[C@H](NC(=O)[C@H](Cc1ccccc1)NC(=O)c1cnccn1)B(O)O [Bortezomib]
How it was run: as §1

Nelarabine = compound: COc1nc(N)nc2c1ncn2[C@@H]1O[C@H](CO)[C@@H](O)[C@@H]1O [Nelarabine]
How it was run: as §1

Pacritinib = compound: C1=N/C2=N/c3ccc(OCCN4CCCC4)c(c3)COC/C=C/COCc3cccc(c3)C(=C1)N2 [Pacritinib]
How it was run: as §1

Vincristine = compound: CC[C@]1(O)C[C@H]2CN(CCc3c([nH]c4ccccc34)[C@@](C(=O)OC)(c3cc4c(cc3OC)N(C=O)[C@H]3[C@@](O)(C(=O)OC)[C@H](OC(C)=O)[C@]5(CC)C=CCN6CC[C@]43[C@@H]65)C2)C1 [Vincristine]
How it was run: as §1

primary MCL patient cells (S068)
viability (BEZ235; 0.024 µM): 1.1 | viability (BEZ235; 0.12 µM): 1.25 | viability (BEZ235; 0.6 µM): 1.16 | viability (BEZ235; 3 µM): 1.45 | viability (BEZ235; 15 µM): 0.982 | viability (Carfilzomib; 0.00016 µM): 0.897 | viability (Carfilzomib; 0.0008 µM): 0.257 | viability (Carfilzomib; 0.004 µM): 0.0483 | viability (Carfilzomib; 0.02 µM): 0.0291 | viability (Carfilzomib; 0.1 µM): 0.0301 | viability (8-Azaguanin; 0.032 µM): 0.911 | viability (8-Azaguanin; 0.16 µM): 1.01 | viability (8-Azaguanin; 0.8 µM): 0.725 | viability (8-Azaguanin; 4 µM): 0.486 | viability (8-Azaguanin; 20 µM): 0.346 | viability (Tozasertib; 0.024 µM): 0.961 | viability (Tozasertib; 0.12 µM): 0.895 | viability (Tozasertib; 0.6 µM): 0.845 | viability (Tozasertib; 3 µM): 0.725 | viability (Tozasertib; 15 µM): 0.684 | viability (ONO-4059; 0.0016 µM): 0.759 | viability (ONO-4059; 0.008 µM): 0.715 | viability (ONO-4059; 0.04 µM): 0.692 | viability (ONO-4059; 0.2 µM): 0.665 | viability (ONO-4059; 1 µM): 0.717 | viability (Nilotinib; 0.016 µM): 1.16 | viability (Nilotinib; 0.08 µM): 1.08 | viability (Nilotinib; 0.4 µM): 1.14 | viability (Nilotinib; 2 µM): 1.09 | viability (Nilotinib; 10 µM): 1.27 | viability (Quizartinib; 0.016 µM): 1.08 | viability (Quizartinib; 0.08 µM): 1.17 | viability (Quizartinib; 0.4 µM): 1.23 | viability (Quizartinib; 2 µM): 1.39 | viability (Quizartinib; 10 µM): 1.51 | viability (EPZ-5676; 0.0032 µM): 0.98 | viability (EPZ-5676; 0.016 µM): 1.16 | viability (EPZ-5676; 0.08 µM): 1.02 | viability (EPZ-5676; 0.4 µM): 1.05 | viability (EPZ-5676; 2 µM): 1.07 | viability (AG-221 (Enasidinib); 0.024 µM): 0.778 | viability (AG-221 (Enasidinib); 0.12 µM): 0.792 | viability (AG-221 (Enasidinib); 0.6 µM): 1.01 | viability (AG-221 (Enasidinib); 3 µM): 1.22 | viability (AG-221 (Enasidinib); 15 µM): 1.73 | viability (BI6727; 0.024 µM): 0.881 | viability (BI6727; 0.12 µM): 0.771 | viability (BI6727; 0.6 µM): 0.403 | viability (BI6727; 3 µM): 0.219 | viability (BI6727; 15 µM): 0.13 | viability (Bortezomib; 0.008 µM): 0.942 | viability (Bortezomib; 0.04 µM): 0.932 | viability (Bortezomib; 0.2 µM): 0.964 | viability (Bortezomib; 1 µM): 0.982 | viability (Bortezomib; 5 µM): 0.956 | viability (Nelarabine; 0.024 µM): 0.995 | viability (Nelarabine; 0.12 µM): 1.1 | viability (Nelarabine; 0.6 µM): 0.94 | viability (Nelarabine; 3 µM): 0.901 | viability (Nelarabine; 15 µM): 0.682 | viability (Pacritinib; 0.024 µM): 0.959 | viability (Pacritinib; 0.12 µM): 0.951 | viability (Pacritinib; 0.6 µM): 0.968 | viability (Pacritinib; 3 µM): 0.717 | viability (Pacritinib; 15 µM): 0.0216 | viability (Vincristine; 0.016 µM): 0.473 | viability (Vincristine; 0.08 µM): 0.413 | viability (Vincristine; 0.4 µM): 0.357 | viability (Vincristine; 2 µM): 0.28 | viability (Vincristine; 10 µM): 0.253

primary T-PLL patient cells (S008)
viability (BEZ235; 0.024 µM): 0.969 | viability (BEZ235; 0.12 µM): 0.967 | viability (BEZ235; 0.6 µM): 0.927 | viability (BEZ235; 3 µM): 0.941 | viability (BEZ235; 15 µM): 0.308 | viability (Carfilzomib; 0.00016 µM): 0.997 | viability (Carfilzomib; 0.0008 µM): 0.434 | viability (Carfilzomib; 0.004 µM): 0.0161 | viability (Carfilzomib; 0.02 µM): 0.0168 | viability (Carfilzomib; 0.1 µM): 0.0205 | viability (8-Azaguanin; 0.032 µM): 0.898 | viability (8-Azaguanin; 0.16 µM): 0.991 | viability (8-Azaguanin; 0.8 µM): 0.91 | viability (8-Azaguanin; 4 µM): 0.858 | viability (8-Azaguanin; 20 µM): 0.712 | viability (Tozasertib; 0.024 µM): 0.977 | viability (Tozasertib; 0.12 µM): 0.957 | viability (Tozasertib; 0.6 µM): 0.974 | viability (Tozasertib; 3 µM): 0.933 | viability (Tozasertib; 15 µM): 0.948 | viability (ONO-4059; 0.0016 µM): 1.02 | viability (ONO-4059; 0.008 µM): 1 | viability (ONO-4059; 0.04 µM): 1.03 | viability (ONO-4059; 0.2 µM): 1.03 | viability (ONO-4059; 1 µM): 1.06 | viability (Nilotinib; 0.016 µM): 1.09 | viability (Nilotinib; 0.08 µM): 1.02 | viability (Nilotinib; 0.4 µM): 1.11 | viability (Nilotinib; 2 µM): 1.01 | viability (Nilotinib; 10 µM): 1.06 | viability (Quizartinib; 0.016 µM): 0.99 | viability (Quizartinib; 0.08 µM): 0.953 | viability (Quizartinib; 0.4 µM): 0.986 | viability (Quizartinib; 2 µM): 1.03 | viability (Quizartinib; 10 µM): 1.02 | viability (EPZ-5676; 0.0032 µM): 0.902 | viability (EPZ-5676; 0.016 µM): 0.963 | viability (EPZ-5676; 0.08 µM): 0.917 | viability (EPZ-5676; 0.4 µM): 0.95 | viability (EPZ-5676; 2 µM): 1 | viability (AG-221 (Enasidinib); 0.024 µM): 0.915 | viability (AG-221 (Enasidinib); 0.12 µM): 0.887 | viability (AG-221 (Enasidinib); 0.6 µM): 1.04 | viability (AG-221 (Enasidinib); 3 µM): 1.01 | viability (AG-221 (Enasidinib); 15 µM): 0.899 | viability (BI6727; 0.024 µM): 0.979 | viability (BI6727; 0.12 µM): 0.921 | viability (BI6727; 0.6 µM): 0.934 | viability (BI6727; 3 µM): 0.899 | viability (BI6727; 15 µM): 0.746 | viability (Bortezomib; 0.008 µM): 0.88 | viability (Bortezomib; 0.04 µM): 1.02 | viability (Bortezomib; 0.2 µM): 0.872 | viability (Bortezomib; 1 µM): 0.921 | viability (Bortezomib; 5 µM): 0.879 | viability (Nelarabine; 0.024 µM): 1.03 | viability (Nelarabine; 0.12 µM): 0.99 | viability (Nelarabine; 0.6 µM): 0.942 | viability (Nelarabine; 3 µM): 0.906 | viability (Nelarabine; 15 µM): 0.758 | viability (Pacritinib; 0.024 µM): 1.02 | viability (Pacritinib; 0.12 µM): 1.11 | viability (Pacritinib; 0.6 µM): 1.03 | viability (Pacritinib; 3 µM): 0.86 | viability (Pacritinib; 15 µM): 0.0403 | viability (Vincristine; 0.016 µM): 0.66 | viability (Vincristine; 0.08 µM): 0.34 | viability (Vincristine; 0.4 µM): 0.269 | viability (Vincristine; 2 µM): 0.22 | viability (Vincristine; 10 µM): 0.164
